molecular target: T1, chimeric human H3 receptor (Homo sapiens, UniProt Q9Y5N1); test: Chimeric human H3 receptor screening GTP binding assay (inhibition of histamine-stimulated GTP-gamma35S binding, Example 8); assay type: biochemical; conditions: 1 h; assay of Example 8; symbol "!" in column headed Ki; read-out: percent inhibition of agonist-induced GTP-gammaS binding to H3
T1 construct: rat Galpha-i2 (Gnai2, rat); made in house; host or cells: Sf9 insect cells (baculovirus); P2 membranes
Summary of the method: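 Compound tested at 4 μM against 1 μM histamine stimulation; 125 pM GTP-gamma35S binding measured by filtration and scintillation after 60 min at room temperature. Membranes from Sf9 cells expressing chimeric human H3 plus G-protein subunits, in Tris pH 7.4/NaCl/MgCl2/GDP buffer; values are % inhibition after nonspecific subtraction.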

T1 sequence (Q9Y5N1 with tags, fused parts or gaps): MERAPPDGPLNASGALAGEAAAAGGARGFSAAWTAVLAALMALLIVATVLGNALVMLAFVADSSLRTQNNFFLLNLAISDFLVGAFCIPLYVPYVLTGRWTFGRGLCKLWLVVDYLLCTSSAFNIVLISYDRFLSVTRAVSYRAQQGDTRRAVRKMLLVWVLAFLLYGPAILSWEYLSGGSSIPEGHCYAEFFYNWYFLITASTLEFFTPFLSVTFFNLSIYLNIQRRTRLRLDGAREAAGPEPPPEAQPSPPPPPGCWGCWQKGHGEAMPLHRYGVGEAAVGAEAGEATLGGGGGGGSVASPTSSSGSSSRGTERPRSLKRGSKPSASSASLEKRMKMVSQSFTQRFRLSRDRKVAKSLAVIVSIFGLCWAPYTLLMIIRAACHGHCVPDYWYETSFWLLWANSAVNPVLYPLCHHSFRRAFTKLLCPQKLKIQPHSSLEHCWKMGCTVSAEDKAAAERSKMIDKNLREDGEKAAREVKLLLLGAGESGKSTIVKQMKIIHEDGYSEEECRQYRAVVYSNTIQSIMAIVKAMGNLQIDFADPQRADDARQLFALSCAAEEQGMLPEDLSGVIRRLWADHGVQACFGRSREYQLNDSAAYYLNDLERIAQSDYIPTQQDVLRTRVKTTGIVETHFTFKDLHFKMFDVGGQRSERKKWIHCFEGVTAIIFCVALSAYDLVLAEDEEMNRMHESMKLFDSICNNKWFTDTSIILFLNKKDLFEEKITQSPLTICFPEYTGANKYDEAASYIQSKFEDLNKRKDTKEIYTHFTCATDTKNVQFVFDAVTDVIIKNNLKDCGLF

SMILES	inhibition at 4 µM [%]
O=C(C1CCOC1)N1CCc2cnc(N3CCN(C4CCC4)CC3)nc2CC1 (stereo not drawn) [Compound 221, 2-(4-cyclobutylpiperazin-1-yl)-7-(tetrahydrofuran-3-ylcarbonyl)-6,7,8,9-tetrahydro-5H-pyrimido[4,5-d]azepine]	≥ 90
CCC(C)C(=O)N1CCc2cnc(N3CCN(C4CCC4)CC3)nc2CC1 (stereo not drawn) [Compound 223, 2-(4-cyclobutylpiperazin-1-yl)-7-(2-methylbutanoyl)-6,7,8,9-tetrahydro-5H-pyrimido[4,5-d]azepine]	≥ 90
O=C(/C=C/c1ccccc1)N1CCc2cnc(N3CCN(C4CCC4)CC3)nc2CC1 [Compound 225, 2-(4-cyclobutylpiperazin-1-yl)-7-[(2E)-3-phenylprop-2-enoyl]-6,7,8,9-tetrahydro-5H-pyrimido[4,5-d]azepine]	≥ 90
COc1ccc(C(=O)N2CCc3cnc(N4CCN(C5CCC5)CC4)nc3CC2)cc1Cl [Compound 226, 7-(3-chloro-4-methoxybenzoyl)-2-(4-cyclobutylpiperazin-1-yl)-6,7,8,9-tetrahydro-5H-pyrimido[4,5-d]azepine]	≥ 90
Cc1ccc(C)c(C(=O)N2CCc3cnc(N4CCN(C5CCC5)CC4)nc3CC2)c1 [Compound 227, 2-(4-cyclobutylpiperazin-1-yl)-7-(2,5-dimethylbenzoyl)-6,7,8,9-tetrahydro-5H-pyrimido[4,5-d]azepine]	≥ 90
c1ccc(CN2CCc3cnc(N4CCN(C5CCC5)CC4)nc3CC2)cc1 [Compound 229, 7-benzyl-2-(4-cyclobutylpiperazin-1-yl)-6,7,8,9-tetrahydro-5H-pyrimido[4,5-d]azepine]	≥ 90
Fc1cccc(CN2CCc3cnc(N4CCN(C5CCC5)CC4)nc3CC2)c1 [Compound 231, 2-(4-cyclobutylpiperazin-1-yl)-7-(3-fluorobenzyl)-6,7,8,9-tetrahydro-5H-pyrimido[4,5-d]azepine]	≥ 90
c1ccc2ncc(CN3CCc4cnc(N5CCN(C6CCC6)CC5)nc4CC3)cc2c1 [Compound 237, 2-(4-cyclobutylpiperazin-1-yl)-7-(quinolin-3-ylmethyl)-6,7,8,9-tetrahydro-5H-pyrimido[4,5-d]azepine]	≥ 90
c1cc(N2CCOCC2)ncc1CN1CCc2cnc(N3CCN(C4CCC4)CC3)nc2CC1 [Compound 240, 2-(4-cyclobutylpiperazin-1-yl)-7-[(6-morpholin-4-ylpyridin-3-yl)methyl]-6,7,8,9-tetrahydro-5H-pyrimido[4,5-d]azepine]	≥ 90
Cc1cc(CN2CCc3cnc(N4CCN(C5CCC5)CC4)nc3CC2)n(C)n1 [Compound 241, 2-(4-cyclobutylpiperazin-1-yl)-7-[(1,3-dimethyl-1H-pyrazol-5-yl)methyl]-6,7,8,9-tetrahydro-5H-pyrimido[4,5-d]azepine]	≥ 90
COc1ccccc1CN1CCc2cnc(N3CCN(C4CCC4)CC3)nc2CC1 [Compound 242, 2-(4-cyclobutylpiperazin-1-yl)-7-(2-methoxybenzyl)-6,7,8,9-tetrahydro-5H-pyrimido[4,5-d]azepine]	≥ 90
COc1ccc(CN2CCc3cnc(N4CCN(C5CCC5)CC4)nc3CC2)c(OC)c1 [Compound 243, 2-(4-cyclobutylpiperazin-1-yl)-7-(2,4-dimethoxybenzyl)-6,7,8,9-tetrahydro-5H-pyrimido[4,5-d]azepine]	≥ 90
CC(C)CCN1CCc2cnc(N3CCN(C4CCC4)CC3)nc2CC1 [Compound 246, 2-(4-cyclobutylpiperazin-1-yl)-7-(3-methylbutyl)-6,7,8,9-tetrahydro-5H-pyrimido[4,5-d]azepine]	≥ 90
CCCN1CCc2cnc(N3CCN(C4CCC4)CC3)nc2CC1 [Compound 247, 2-(4-cyclobutylpiperazin-1-yl)-7-propyl-6,7,8,9-tetrahydro-5H-pyrimido[4,5-d]azepine]	≥ 90
CCCCCN1CCc2cnc(N3CCN(C4CCC4)CC3)nc2CC1 [Compound 249, 2-(4-cyclobutylpiperazin-1-yl)-7-pentyl-6,7,8,9-tetrahydro-5H-pyrimido[4,5-d]azepine]	≥ 90
CCCCCCN1CCc2cnc(N3CCN(C4CCC4)CC3)nc2CC1 [Compound 250, 2-(4-cyclobutylpiperazin-1-yl)-7-hexyl-6,7,8,9-tetrahydro-5H-pyrimido[4,5-d]azepine]	≥ 90

Continued, values first:

inhibition at 4 µM [%]	SMILES
≥ 90	O=C(C1CC1)N1CCc2cnc(N3CCN(C4CCC4)CC3)nc2CC1 [Compound 215, 2-(4-cyclobutylpiperazin-1-yl)-7-(cyclopropylcarbonyl)-6,7,8,9-tetrahydro-5H-pyrimido[4,5-d]azepine]
≥ 90	O=C(C1CCC1)N1CCc2cnc(N3CCN(C4CCC4)CC3)nc2CC1 [Compound 216, 7-(cyclobutylcarbonyl)-2-(4-cyclobutylpiperazin-1-yl)-6,7,8,9-tetrahydro-5H-pyrimido[4,5-d]azepine]
≥ 90	O=C(C1CCCC1)N1CCc2cnc(N3CCN(C4CCC4)CC3)nc2CC1 [Compound 217, 2-(4-cyclobutylpiperazin-1-yl)-7-(cyclopentylcarbonyl)-6,7,8,9-tetrahydro-5H-pyrimido[4,5-d]azepine]
≥ 90	O=C(C1CCCCC1)N1CCc2cnc(N3CCN(C4CCC4)CC3)nc2CC1 [Compound 218, 2-(4-cyclobutylpiperazin-1-yl)-7-(cyclohexylcarbonyl)-6,7,8,9-tetrahydro-5H-pyrimido[4,5-d]azepine]
≥ 90	O=C(C1CCCCCC1)N1CCc2cnc(N3CCN(C4CCC4)CC3)nc2CC1 [Compound 219, 2-(4-cyclobutylpiperazin-1-yl)-7-(cycloheptylcarbonyl)-6,7,8,9-tetrahydro-5H-pyrimido[4,5-d]azepine]
≥ 90	O=C(C1CCCO1)N1CCc2cnc(N3CCN(C4CCC4)CC3)nc2CC1 (stereo not drawn) [Compound 220, 2-(4-cyclobutylpiperazin-1-yl)-7-(tetrahydrofuran-2-ylcarbonyl)-6,7,8,9-tetrahydro-5H-pyrimido[4,5-d]azepine]
≥ 90	CC(C)C(=O)N1CCc2cnc(N3CCN(C4CCC4)CC3)nc2CC1 [Compound 222, 2-(4-cyclobutylpiperazin-1-yl)-7-isobutyryl-6,7,8,9-tetrahydro-5H-pyrimido[4,5-d]azepine]
≥ 90	CCCC(C)C(=O)N1CCc2cnc(N3CCN(C4CCC4)CC3)nc2CC1 (stereo not drawn) [Compound 224, 2-(4-cyclobutylpiperazin-1-yl)-7-(2-methylpentanoyl)-6,7,8,9-tetrahydro-5H-pyrimido[4,5-d]azepine]
≥ 90	COCCOCC(=O)N1CCc2cnc(N3CCN(C4CCC4)CC3)nc2CC1 [Compound 228, 2-(4-cyclobutylpiperazin-1-yl)-7-[(2-methoxyethoxy)acetyl]-6,7,8,9-tetrahydro-5H-pyrimido[4,5-d]azepine]
≥ 90	Fc1ccccc1CN1CCc2cnc(N3CCN(C4CCC4)CC3)nc2CC1 [Compound 230, 2-(4-cyclobutylpiperazin-1-yl)-7-(2-fluorobenzyl)-6,7,8,9-tetrahydro-5H-pyrimido[4,5-d]azepine]
≥ 90	Fc1ccc(CN2CCc3cnc(N4CCN(C5CCC5)CC4)nc3CC2)cc1 [Compound 232, 2-(4-cyclobutylpiperazin-1-yl)-7-(4-fluorobenzyl)-6,7,8,9-tetrahydro-5H-pyrimido[4,5-d]azepine]
≥ 90	Cc1cccc(CN2CCc3cnc(N4CCN(C5CCC5)CC4)nc3CC2)c1 [Compound 233, 2-(4-cyclobutylpiperazin-1-yl)-7-(3-methylbenzyl)-6,7,8,9-tetrahydro-5H-pyrimido[4,5-d]azepine]
≥ 90	Cc1ccc(CN2CCc3cnc(N4CCN(C5CCC5)CC4)nc3CC2)cc1 [Compound 234, 2-(4-cyclobutylpiperazin-1-yl)-7-(4-methylbenzyl)-6,7,8,9-tetrahydro-5H-pyrimido[4,5-d]azepine]
≥ 90	Cn1ccnc1CN1CCc2cnc(N3CCN(C4CCC4)CC3)nc2CC1 [Compound 235, 2-(4-cyclobutylpiperazin-1-yl)-7-[(1-methyl-1H-imidazol-2-yl)methyl]-6,7,8,9-tetrahydro-5H-pyrimido[4,5-d]azepine]
≥ 90	c1ccc2c(CN3CCc4cnc(N5CCN(C6CCC6)CC5)nc4CC3)ccnc2c1 [Compound 236, 2-(4-cyclobutylpiperazin-1-yl)-7-(quinolin-4-ylmethyl)-6,7,8,9-tetrahydro-5H-pyrimido[4,5-d]azepine]
≥ 90	Cc1cccc(CN2CCc3cnc(N4CCN(C5CCC5)CC4)nc3CC2)n1 [Compound 238, 2-(4-cyclobutylpiperazin-1-yl)-7-[(6-methylpyridin-2-yl)methyl]-6,7,8,9-tetrahydro-5H-pyrimido[4,5-d]azepine]
≥ 90	c1cncc(CN2CCc3cnc(N4CCN(C5CCC5)CC4)nc3CC2)c1 [Compound 239, 2-(4-cyclobutylpiperazin-1-yl)-7-(pyridin-3-ylmethyl)-6,7,8,9-tetrahydro-5H-pyrimido[4,5-d]azepine]
≥ 90	CC(C)c1ccc(CN2CCc3cnc(N4CCN(C5CCC5)CC4)nc3CC2)cc1 [Compound 244, 2-(4-cyclobutylpiperazin-1-yl)-7-(4-isopropylbenzyl)-6,7,8,9-tetrahydro-5H-pyrimido[4,5-d]azepine]
≥ 90	CCN1CCc2cnc(N3CCN(C4CCC4)CC3)nc2CC1 [Compound 245, 2-(4-cyclobutylpiperazin-1-yl)-7-ethyl-6,7,8,9-tetrahydro-5H-pyrimido[4,5-d]azepine]
≥ 90	CCCCN1CCc2cnc(N3CCN(C4CCC4)CC3)nc2CC1 [Compound 248, 7-butyl-2-(4-cyclobutylpiperazin-1-yl)-6,7,8,9-tetrahydro-5H-pyrimido[4,5-d]azepine]

— patent US20080051387A1, “TETRAHYDROPYRIDO[3,4-D]PYRIMIDINES AND RELATED ANALOGUES” (priority 2006, published 2008)
